This assay deals with BDF1 mice, P388 leukemia ip, median survival T/C. As to the kind of experiment: NCI In Vivo Anticancer Drug Screen. Data for tumor model P388 Leukemia (intraperitoneal) in B6D2F1 (BDF1) mice. As to conditions: endpoint: median survival time, higher = longer survival. Summed up:
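In tumour-bearing mice, survival after compound treatment is set against the vehicle group and given as a quotient.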

The mark [1] stands for this setting: dose: 100.0 mg/kg/injection, schedule: Q04DX003 (ip), vehicle: Klucel (hydroxypropylcellulose) (HPC).
Setting [2] is: dose: 200.0 mg/kg/injection, schedule: Q04DX003 (ip), vehicle: Klucel (hydroxypropylcellulose) (HPC).
Where [3] appears, read: dose: 400.0 mg/kg/injection, schedule: Q04DX003 (ip), vehicle: Klucel (hydroxypropylcellulose) (HPC).

Where “and” joins values, the source holds several entries; their conditions need not be identical. Identical values can stand only once. Toxic doses and inconclusive results are not listed. Residues, ends and D or L forms follow the SMILES beside them. *: point of attachment. Cbz = O=C(OCc1ccccc1)*; Bn = c1ccc(C*)cc1

As for `CN=C(N)c1ccc(N=C(N)c2ccc(N=C(N)c3ccc(N=C(O)c4cccc(C(O)=Nc5ccc(C(N)=Nc6ccc(C(N)=Nc7ccc(C(N)=NC)cc7)cc6)cc5)c4)cc3)cc2)cc1`, the T/C is, setting by setting: (dose: 4.0 mg/kg/injection, schedule: Q01DX009 (ip), vehicle: saline with Tween-80) 154 % of control; (dose: 4.0 mg/kg/injection, schedule: Q04DX003 (ip), vehicle: saline with Tween-80) 123 % of control; (dose: 6.0 mg/kg/injection, schedule: Q04DX003 (ip), vehicle: saline with Tween-80) 150 % of control; (dose: 8.0 mg/kg/injection, schedule: Q01DX009 (ip), vehicle: saline with Tween-80) 177 % of control; (dose: 9.0 mg/kg/injection, schedule: Q04DX003 (ip), vehicle: saline with Tween-80) 168 % of control; (dose: 11.0 mg/kg/injection, schedule: Q01DX009 (ip), vehicle: saline with Tween-80) 200 % of control. Besides, the T/C (dose: 12.0 mg/kg/injection, schedule: Q01DX009 (ip), vehicle: saline with Tween-80) is 166 % of control; the T/C (dose: 14.0 mg/kg/injection, schedule: Q04DX003 (ip), vehicle: saline with Tween-80) was 168 % of control; the T/C (dose: 16.0 mg/kg/injection, schedule: Q01DX009 (ip), vehicle: saline with Tween-80) was 181 % of control and 183 % of control; the T/C (dose: 16.5 mg/kg/injection, schedule: Q01DX009 (ip), vehicle: saline with Tween-80) was 227 % of control; the T/C (dose: 22.0 mg/kg/injection, schedule: Q04DX003 (ip), vehicle: saline with Tween-80) was 159 % of control and 177 % of control and 204 % of control; the T/C (dose: 33.0 mg/kg/injection, schedule: Q04DX003 (ip), vehicle: saline with Tween-80) is 250 % of control and 177 % of control. Further, the T/C is, setting by setting: (dose: 37.5 mg/kg/injection, schedule: Q01DX009 (ip), vehicle: saline with Tween-80) 233 % of control and 194 % of control; (dose: 50.0 mg/kg/injection, schedule: Q04DX003 (ip), vehicle: saline with Tween-80) 250 % of control and 190 % of control; (dose: 75.0 mg/kg/injection, schedule: Q04DX003 (ip), vehicle: saline with Tween-80) 231 % of control and 200 % of control.
Turning to `Cc1ccccc1C(O)c1ccccc1Cl` (centres undefined), the T/C is, setting by setting: (dose: 100.0 mg/kg/injection, schedule: Q01DX001 (ip), vehicle: saline sonified) 100 % of control; (dose: 200.0 mg/kg/injection, schedule: Q01DX001 (ip), vehicle: saline sonified) 100 % of control; (dose: 400.0 mg/kg/injection, schedule: Q01DX001 (ip), vehicle: saline sonified) 100 % of control.
For the compound `O=C(c1ccccc1Cl)n1c2c(c3ccccc31)CCCC2`, the T/C runs as follows: (dose: 100.0 mg/kg/injection, schedule: Q04DX003 (ip), vehicle: saline with Tween-80) 100 % of control; (dose: 200.0 mg/kg/injection, schedule: Q04DX003 (ip), vehicle: saline with Tween-80) 104 % of control; (dose: 400.0 mg/kg/injection, schedule: Q04DX003 (ip), vehicle: saline with Tween-80) 100 % of control.
In the case of `O=C(O)c1ccccc1C(=O)Nc1cc(Cl)ccc1Cl`, the T/C (dose: 50.0 mg/kg/injection, schedule: Q04DX003 (ip), vehicle: Klucel (hydroxypropylcellulose) (HPC)) is 91 % of control and the T/C under setting [1] was 100 % of control.
On to `O=C1c2ccccc2C(=O)N1Cc1ccc([N+](=O)[O-])cc1`, for which the T/C is, setting by setting: (dose: 12.5 mg/kg/injection, schedule: Q01DX009 (ip), vehicle: saline with Tween-80) 97 % of control; (dose: 25.0 mg/kg/injection, schedule: Q01DX009 (ip), vehicle: saline with Tween-80) 96 % of control; (dose: 50.0 mg/kg/injection, schedule: Q01DX009 (ip), vehicle: saline with Tween-80) 97 % of control; (dose: 100.0 mg/kg/injection, schedule: Q01DX009 (ip), vehicle: saline with Tween-80) 92 % of control.
`O=C(NC(CSCc1ccccc1)C(=O)NC(Cc1ccc(O)cc1)C(=O)O)OCc1ccccc1` (centres undefined) (Cbz-Cys(Bn)-Tyr-OH; configuration not given here): the T/C was 95 % of control (dose: 100.0 mg/kg/injection, schedule: Q01DX009 (ip), vehicle: gum acacia); 88 % of control (dose: 100.0 mg/kg/injection, schedule: Q04DX003 (ip), vehicle: gum acacia); 95 % of control (dose: 200.0 mg/kg/injection, schedule: Q01DX009 (ip), vehicle: gum acacia); 107 % of control (dose: 200.0 mg/kg/injection, schedule: Q04DX003 (ip), vehicle: gum acacia); 100 % of control (dose: 400.0 mg/kg/injection, schedule: Q01DX009 (ip), vehicle: gum acacia); 92 % of control (dose: 400.0 mg/kg/injection, schedule: Q04DX003 (ip), vehicle: gum acacia).
For the compound `CCC(c1ccc2cc(OC)ccc2c1)C(CC(=O)O)C(=O)OC` (centres undefined), the T/C was 87 % of control under setting [1], 91 % of control under setting [2] and 91 % of control under setting [3].
Turning to `CC(=O)Nc1ccc(C=O)cc1[N+](=O)[O-]`, the T/C (dose: 100.0 mg/kg/injection, schedule: Q01DX009 (ip), vehicle: Klucel (hydroxypropylcellulose) (HPC)) was 110 % of control; the T/C (dose: 200.0 mg/kg/injection, schedule: Q01DX009 (ip), vehicle: Klucel (hydroxypropylcellulose) (HPC)) is 100 % of control; the T/C (dose: 400.0 mg/kg/injection, schedule: Q01DX009 (ip), vehicle: Klucel (hydroxypropylcellulose) (HPC)) is 100 % of control.
In the case of `O=C1C=C(Cl)C(=O)C(Cl)=C1`, the T/C was 100 % of control (dose: 3.0 mg/kg/injection, schedule: Q01DX009 (ip), vehicle: Klucel (hydroxypropylcellulose) (HPC)); 87 % of control (dose: 6.0 mg/kg/injection, schedule: Q01DX009 (ip), vehicle: Klucel (hydroxypropylcellulose) (HPC)); 95 % of control (dose: 6.25 mg/kg/injection, schedule: Q04DX003 (ip), vehicle: Klucel (hydroxypropylcellulose) (HPC)); 100 % of control (dose: 12.5 mg/kg/injection, schedule: Q04DX003 (ip), vehicle: Klucel (hydroxypropylcellulose) (HPC)).
With `Nc1ncns1`, the T/C runs as follows: (dose: 50.0 mg/kg/injection, schedule: Q04DX003 (ip), vehicle: saline) 101 % of control; (dose: 100.0 mg/kg/injection, schedule: Q04DX003 (ip), vehicle: saline) 120 % of control.
Turning to `O=[N+]([O-])c1ccc(N2CCOCC2)c2c1no[n+]2[O-]`, the T/C is, setting by setting: (dose: 6.25 mg/kg/injection, schedule: Q01DX009 (ip), vehicle: saline) 95 % of control; (dose: 12.5 mg/kg/injection, schedule: Q01DX009 (ip), vehicle: saline) 100 % of control; (dose: 25.0 mg/kg/injection, schedule: Q01DX009 (ip), vehicle: saline) 108 % of control; (dose: 32.0 mg/kg/injection, schedule: Q04DX003 (ip), vehicle: saline with Tween-80) 150 % of control; (dose: 64.0 mg/kg/injection, schedule: Q04DX003 (ip), vehicle: saline with Tween-80) 160 % of control.
As for `CNC(=O)NC1C(O)C(CO)OC(OC)C1O` (centres undefined), the T/C by setting is: (dose: 100.0 mg/kg/injection, schedule: Q01DX001 (ip), vehicle: saline) 118 % of control; (dose: 200.0 mg/kg/injection, schedule: Q01DX001 (ip), vehicle: saline) 100 % of control; (dose: 400.0 mg/kg/injection, schedule: Q01DX001 (ip), vehicle: saline) 104 % of control.
For `CC(=O)Nc1cc(F)c([N+](=O)[O-])cc1[N+](=O)[O-]`, the T/C is 115 % of control (dose: 0.62 mg/kg/injection, schedule: Q01DX009 (ip), vehicle: saline); 100 % of control (dose: 1.25 mg/kg/injection, schedule: Q01DX009 (ip), vehicle: saline); 105 % of control (dose: 2.5 mg/kg/injection, schedule: Q01DX009 (ip), vehicle: Klucel (hydroxypropylcellulose) (HPC)); 300 % of control and 100 % of control (dose: 2.5 mg/kg/injection, schedule: Q01DX009 (ip), vehicle: saline); 115 % of control (dose: 5.0 mg/kg/injection, schedule: Q01DX009 (ip), vehicle: Klucel (hydroxypropylcellulose) (HPC)); 300 % of control and 110 % of control (dose: 5.0 mg/kg/injection, schedule: Q01DX009 (ip), vehicle: saline). The T/C is 100 % of control (dose: 10.0 mg/kg/injection, schedule: Q01DX009 (ip), vehicle: Klucel (hydroxypropylcellulose) (HPC)); 300 % of control and 105 % of control (dose: 10.0 mg/kg/injection, schedule: Q01DX009 (ip), vehicle: saline); 110 % of control (dose: 20.0 mg/kg/injection, schedule: Q01DX009 (ip), vehicle: Klucel (hydroxypropylcellulose) (HPC)); 95 % of control (dose: 20.0 mg/kg/injection, schedule: Q01DX009 (ip), vehicle: saline).
Take `CC1(C)Cc2cc3cc(Cl)ccc3nc2-c2ccccc21`: the T/C was 110 % of control (dose: 100.0 mg/kg/injection, schedule: Q01DX009 (ip), vehicle: saline); 110 % of control under setting [1]; 105 % of control (dose: 200.0 mg/kg/injection, schedule: Q01DX009 (ip), vehicle: saline); 115 % of control under setting [2]; 110 % of control (dose: 400.0 mg/kg/injection, schedule: Q01DX009 (ip), vehicle: saline); 110 % of control under setting [3].

The values above are taken from PubChem BioAssay AID328 (DTP/NCI, 2004).
